For one experiment, the target named is T1, hP2X2/3H (Homo sapiens, UniProt P56373+Q9UBL9).
T1 construct: expressed in transfected cells; host or cells: e.g. HEK293 or 1321N1
T1 sequence (Q9UBL9 1-471): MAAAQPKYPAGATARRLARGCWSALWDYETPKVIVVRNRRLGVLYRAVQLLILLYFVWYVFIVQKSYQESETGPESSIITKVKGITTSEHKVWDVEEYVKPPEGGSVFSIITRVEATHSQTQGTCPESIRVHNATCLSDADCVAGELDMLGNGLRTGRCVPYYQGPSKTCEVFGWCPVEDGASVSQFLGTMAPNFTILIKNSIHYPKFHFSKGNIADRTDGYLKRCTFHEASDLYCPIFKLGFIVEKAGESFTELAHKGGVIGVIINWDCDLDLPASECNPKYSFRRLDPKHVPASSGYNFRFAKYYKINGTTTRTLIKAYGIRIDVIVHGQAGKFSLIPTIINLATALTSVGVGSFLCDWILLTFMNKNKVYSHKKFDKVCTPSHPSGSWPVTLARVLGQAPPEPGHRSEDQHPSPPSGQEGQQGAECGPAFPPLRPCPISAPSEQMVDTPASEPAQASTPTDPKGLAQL
T1 sequence (P56373 1-397): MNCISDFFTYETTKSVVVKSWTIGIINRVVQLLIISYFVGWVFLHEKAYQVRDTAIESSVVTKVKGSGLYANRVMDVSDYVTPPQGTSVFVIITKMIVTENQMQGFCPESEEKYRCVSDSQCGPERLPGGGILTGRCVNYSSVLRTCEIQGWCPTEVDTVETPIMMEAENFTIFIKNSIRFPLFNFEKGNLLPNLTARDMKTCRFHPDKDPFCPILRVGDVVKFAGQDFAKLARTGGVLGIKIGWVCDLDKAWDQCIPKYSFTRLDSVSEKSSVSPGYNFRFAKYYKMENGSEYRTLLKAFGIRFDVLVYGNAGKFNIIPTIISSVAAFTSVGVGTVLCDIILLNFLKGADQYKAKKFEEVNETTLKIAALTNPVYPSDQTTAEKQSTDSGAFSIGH
Put plainly: Calcium uptake assay (P2X antagonist assay), P2X2/3 heteromer. The class given is cell-based. Particulars: calcium uptake assay, hP2X2/3H; read-out: IC50 hP2X2/3H (nM), Ca Influx. The text has this:
(§1) The human P2X2/3 chimera clone is created as described by Neelands et al, and then cloned into an expression vector as above. Receptors are expressed in cells (e.g., HEK293 or 1321N1 (obtained from the ECACC)) via transient transfection using standard lipid mediated transfection, or by creation of stable transfectants for each receptor. For expression of the P2X2/3 heteromeric receptor, the P2X3 expression vector is stably transfected into a cell line already stably expressing P2X2. P2X2/3 heteromer function is isolated using pharmacological methods. Cell lines are maintained in DMEM+5% Glutamax, the appropriate level of selective antibiotic, and 10% heat inactivated FBS.
(§2) Functional activity of compounds at the P2X receptor is determined by measuring their ability to inhibit agonist-induced calcium influx. Compounds are tested for antagonist activity against the P2X2/3 chimera, the P2X3 homomer, or the P2X2/3 heteromer. At the start of each screening day, the agonist EC50 is determined. Compound % inhibition or IC50s are subsequently determined using a predetermined agonist concentration (EC50-90 depending on cell line) as a stimulus. The agonists used are αβMeATP, ATP, or other ATP analogs. Compounds may be tested at concentrations ranging from 1 pM to 10 μM.
(§3) To test for antagonist activity, cells expressing the appropriate receptor are seeded onto 96 or 384 well plates 18-24 hours prior to assay. […] Plates are incubated at 37° C. and then equilibrated at room temperature. Antagonism of agonist-induced calcium influx is measured using a fluorescent imaging plate reader (e.g. FLIPR^TETRA, Molecular Devices, Sunnyvale, Calif.). The assay comprises two stages: a pre-treatment phase followed by a treatment phase. Compounds may be tested as follows: For the pre-treatment phase, 50 μL of 3× concentration of test compound in HBSS is added to cells containing […], of dye loading media to achieve a final concentration of 1× test compound. For the treatment phase, at a set interval after pre-treatment (1-30 minutes), 50 μL of 1× test compound plus 4× agonist solution is added, resulting in a final concentration of 1× compound and 1× agonist. […] Responses are measured as (peak fluorescence after agonist addition) minus (baseline fluorescence prior to treatment). Percent inhibition is calculated as follows:
(§4) [formula] IC50 values are determined by analyzing dose response data in a 4 parameter logistic fit using GraphPad Prizm.

The next experiment deals with T2, hP2X3 (Homo sapiens, UniProt P56373).
T2 construct: expressed in transfected cells; host or cells: e.g. HEK293 or 1321N1
T2 sequence (P56373 1-397): T1 sequence (P56373 1-397)
The experiment in a line: Calcium uptake assay (P2X antagonist assay), P2X3 homomer. The class given is cell-based. Conditions: calcium uptake assay, hP2X3; read-out: IC50 hP2X3 (nM), Ca Influx.
Source text: as §1, §2, §3, §4

In the case of `CCCS(=O)(=O)c1cc(C(=O)NCc2ccn3ccnc3c2)cc(-c2ccc(C)cc2)c1` [Compound 57], the IC50 at hP2X2/3H and on hP2X3 was under 100 nM in each case.
On to `Cc1ccc(-c2cc(C(=O)NCc3ccc(C)nc3)cc(S(C)(=O)=O)c2)cc1` [Compound 58, 4′-Methyl-N-((6-methylpyridin-3-yl)methyl)-5-(methylsulfonyl)biphenyl-3-carboxamide], for which the IC50 at hP2X2/3H and at hP2X3 was under 100 nM throughout.
For `Cc1ccc(-c2cc(C(=O)NCc3cnc(C)nc3)cc(S(C)(=O)=O)c2)c(C#N)c1` [Compound 59], the IC50 is 100 to 500 nM on hP2X2/3H and under 100 nM at hP2X3.
The like results for `Cc1ccc(-c2cc(C(=O)NCc3ccc(C)nc3)cc(C(=O)N3CCCC3)c2)cc1` [Compound 60] were, in that order, under 100 nM and under 100 nM.
For `Cc1ccc(-c2cc(C(=O)NCc3ccc(C)nc3)cc(C(=O)N3CCCC3)c2)c(C#N)c1` [Compound 61], in that order: under 100 nM and under 100 nM.
Take `Cc1ccc(-c2cc(C(=O)NCc3ccc(C(F)(F)F)nc3)cc(C(=O)N3CCCC3)c2)c(C#N)c1` [Compound 62, 2′-Cyano-4′-methyl-5-(pyrrolidine-1-carbonyl)-N-((6-(trifluoromethyl)pyridin-3-yl)methyl)biphenyl-3-carboxamide]: the IC50 on hP2X2/3H is 100 to 500 nM; on hP2X3 it was under 100 nM.
Turning to `Cc1ccc(-c2cc(C(=O)NCc3ccc(C)nc3)cc(C(=O)N3CC(O)C3)c2)c(C#N)c1` [Compound 63, 2′-Cyano-5-(3-hydroxyazetidine-1-carbonyl)-4′-methyl-N-((6-methylpyridin-3-yl)methyl)biphenyl-3-carboxamide], the IC50 at hP2X2/3H and at hP2X3 was under 100 nM in each case.
`Cc1ccc(-c2cc(C(=O)NCc3ccc(C(F)(F)F)nc3)cc(C(=O)N3CC(O)C3)c2)c(C#N)c1` [Compound 64]: the IC50 at hP2X2/3H and at hP2X3 was under 100 nM throughout.
For `Cc1ccc(-c2cc(S(=O)(=O)N3CCCC3)cc(C(=O)N[C@H](C)c3cnc(C)nc3)c2C)cc1` [Compound 65, (R)-2,4′-Dimethyl-N-(1-(2-methylpyrimidin-5-yl)ethyl)-5-(pyrrolidin-1-ylsulfonyl)biphenyl-3-carboxamide], the IC50 on hP2X2/3H was over 1000 nM; at hP2X3, 100 to 500 nM.
For `Cc1ccc(-c2cc(S(=O)(=O)N3CCCC3)cc(C(=O)NCc3ccc(Cl)c(S(C)(=O)=O)c3)c2C)cc1` [Compound 66], in that order: over 1000 nM and 100 to 500 nM.
For `Cc1ccc(-c2cc(S(=O)(=O)N3CCCC3)cc(C(=O)NCc3cnc(C)nc3)c2C)cc1` [Compound 67, 2,4′-Dimethyl-N-((2-methylpyrimidin-5-yl)methyl)-5-(pyrrolidin-1-ylsulfonyl)biphenyl-3-carboxamide], in that order: over 1000 nM and under 100 nM.
For `Cc1ccc(-c2cc(S(=O)(=O)N3CCCC3)cc(C(=O)NCc3ccc(C)nc3)c2C)cc1` [Compound 68], in that order: over 1000 nM and 100 to 500 nM.
On to `Cc1ccc(-c2cc(C(=O)NCc3ccc(Cl)nc3)cc(C(=O)N3CCCC3)c2)c(C#N)c1` [Compound 69], for which the IC50 on hP2X2/3H and at hP2X3 was under 100 nM in each case.
Regarding `CCCS(=O)(=O)c1cc(C(=O)N[C@@H](C)CN2CCOCC2)cc(-c2ccc(C)cc2)c1` [Compound 70], the figures for the IC50 on hP2X2/3H and at hP2X3 were 100 to 500 nM and under 100 nM, respectively.
The like results for `Cc1ccc(-c2cc(C(=O)NCc3ccc(C)c(S(C)(=O)=O)c3)cc(C(=O)N3CCCC3)c2)cc1` [Compound 71] were, in that order, under 100 nM and under 100 nM.
For `Cc1ccc(-c2cc(C(=O)NCc3ccc4c(c3)S(=O)(=O)CC4)cc(C(=O)N3CCCC3)c2)cc1` [Compound 72], in that order: under 100 nM and under 100 nM.
The like results for `Cc1ccc(-c2cc(C(=O)NCc3ccc(Cl)c(S(=O)(=O)NC4CC4)c3)cc(C(=O)N3CCCC3)c2)cc1` [Compound 73, N-(4-Chloro-3-(N-cyclopropylsulfamoyl)benzyl)-4′-methyl-5-(pyrrolidine-1-carbonyl)biphenyl-3-carboxamide] were, in that order, 501 to 1000 nM and 100 to 500 nM.
For the compound `Cc1ccc(-c2cc(C(=O)NCc3ncc(C(F)(F)F)cc3Cl)cc(C(=O)N3CCCC3)c2)cc1` [Compound 74], the IC50 at hP2X2/3H and at hP2X3 was under 100 nM throughout.
With `Cc1ccc(-c2cc(C(=O)N[C@H](C)c3ccc(C(F)(F)F)nc3)cc(C(=O)N3CCC3)c2)cc1` [Compound 75], the IC50 at hP2X2/3H and on hP2X3 was under 100 nM in each case.
Turning to `Cc1ccc(-c2cc(C(=O)N[C@H](C)c3cnc(C)nc3)cc(C(=O)N3CC(O)C3)c2)cc1` [Compound 76], the IC50 on hP2X2/3H and on hP2X3 was under 100 nM each time.
Consider `COc1ncc([C@@H](C)NC(=O)c2cc(C(=O)N3CCC3)cc(-c3ccc(C)cc3)c2)cn1` [Compound 77], for which the IC50 on hP2X2/3H and at hP2X3 was under 100 nM each time.
Consider `Cc1ccc(-c2cc(C(=O)N[C@H](C)c3cnc(C)nc3)cc(C(=O)N3CCC3)c2)cc1` [Compound 78], for which the IC50 at hP2X2/3H and on hP2X3 was under 100 nM each time.
Turning to `COc1ncc(CNC(=O)c2cc(C(=O)N3CCCC3)cc(-c3ccc(C)cc3)c2)c(N)n1` [Compound 79], the IC50 fell in the range of 501 to 1000 nM at hP2X2/3H and 100 to 500 nM on hP2X3.
Turning to `Cc1ccc(-c2cc(C(=O)NCc3cnc(C(C)C)nc3)cc(C(=O)N3CCCC3)c2)cc1` [Compound 80], the figures for the IC50 on hP2X2/3H and on hP2X3 were over 1000 nM and 501 to 1000 nM, respectively.
In the case of `Cc1ccc(-c2cc(C(=O)NCc3ncc(Cl)cc3Cl)cc(C(=O)N3CCCC3)c2)cc1` [Compound 81], the IC50 at hP2X2/3H and at hP2X3 was under 100 nM each time.
Consider `Cc1ccc(-c2cc(C(=O)N[C@@H](C)CN3CCOCC3)cc(C(=O)N3CCCC3)c2)cc1` [Compound 82], for which the IC50 on hP2X2/3H was 501 to 1000 nM; at hP2X3, under 100 nM.
Consider `Cc1ccc(-c2cc(C(=O)NC(CCO)c3ccc(C(F)(F)F)nc3)cc(C(=O)N3CCCC3)c2)cc1` (stereo not drawn) [Compound 83, N-(3-Hydroxy-1-(6-(trifluoromethyl)pyridin-3-yl)propyl)-4′-methyl-5-(pyrrolidine-1-carbonyl)biphenyl-3-carboxamide], for which the IC50 at hP2X2/3H and at hP2X3 was 100 to 500 nM throughout.
Take `COc1ncc([C@@H](C)NC(=O)c2cc(C(=O)N3CC(O)C3)cc(-c3ccc(C)cc3)c2)cn1` [Compound 84]: the IC50 on hP2X2/3H is 100 to 500 nM; at hP2X3, under 100 nM.
For `Cc1ccc(-c2cc(C(=O)N[C@H](C)c3ccc(C(F)(F)F)nc3)cc(C(=O)N3CC(O)C3)c2)cc1` [Compound 85], in that order: under 100 nM and under 100 nM.
The like results for `Cc1ccc(-c2cc(C(=O)NCc3ccc(C)nc3)cc(C(=O)N3CCC(N4CCOCC4)C3)c2)cc1` (stereo not drawn) [Compound 86, 4′-Methyl-N-((6-methylpyridin-3-yl)methyl)-5-(3-morpholinopyrrolidine-1-carbonyl)biphenyl-3-carboxamide] were, in that order, 100 to 500 nM and 100 to 500 nM.
